Laboratory results reported in ChEMBL document CHEMBL6074674, “Development of Novel Silicon-Based Hydrophobic Tags (SiHyT) for Targeted Proteins Degradation” (J Med Chem, 2024).
The source made the active and inactive calls. The rule behind the calls is not given here.

Legend:
[1] = system: E3 ubiquitin-protein ligase RNF149/Epidermal growth factor receptor (Homo sapiens), P00533+Q8NC42 [UNDEFINED MUTATION]; experiment: SiHyT-mediated degrader activity at RNF149/EGFR mutant in human HCC827 cels assessed as induction of EGFR degradation at 0.1 uM cells incubated in serum-free media for 8 hrs followed by incubation with compound for 24 hrs by western blot analysis; assay type: cell-based
HCC827 [2] = experiment: Antiproliferative activity against human HCC827 cells assessed as decrease in cell survival measured after 72 hrs by CCK-8 assay; assay type: functional, cell-based; settings: HCC827, 72 h
[3] = system: E3 ubiquitin-protein ligase RNF149/Epidermal growth factor receptor (Homo sapiens), P00533+Q8NC42 [UNDEFINED MUTATION]; experiment: SiHyT-mediated degrader activity at RNF149/EGFR mutant in human HCC827 cells assessed as induction of EGFR degradation at 1 uM cells incubated in serum-free media for 8 hrs followed by incubation with compound for 24 hrs by western blot analysis; assay type: cell-based
MOLM-13 [4] = experiment: SiHyT-mediated degrader activity at RNF149/BTK in human MOLM-13 cells assessed as induction of BTK degradation at 2.5 uM incubated for 3 to 24 hrs by western blot analysis; assay type: cell-based; settings: time 3-24 hrs
MOLM-13 [5] = experiment: SiHyT-mediated degrader activity at RNF149/BTK in human MOLM-13 cells assessed as reduction in half life of BTK at 2.5 uM incubated for 6 to 24 hrs in presence of protein synthesis inhibitor, CHX by western blot analysis; assay type: cell-based; settings: time 6-24 hrs
MOLM-13 [6] = experiment: SiHyT-mediated degrader activity at RNF149/BTK in human MOLM-13 cells assessed as induction of BTK degradation at 2.5 uM pretreated with E1 ligase inhibitor, PYR-41 for 4 hrs followed by incubation with compound for 24 hrs by western blot analysis; assay type: cell-based
MOLM-13 [7] = experiment: SiHyT-mediated degrader activity at RNF149/BTK in human MOLM-13 cells assessed as induction of BTK degradation at 2.5 uM pretreated with proteasome inhibitor, MG-132 for 4 hrs followed by incubation with compound for 24 hrs by western blot analysis; assay type: cell-based
MOLM-13 [8] = experiment: SiHyT-mediated degrader activity at RNF149/BTK in human MOLM-13 cells assessed as increase in BTK ubiquitination pretreated with MG132 followed by incubation with compound for 9 hrs by immunoprecipitation based western blot analysis; assay type: cell-based
MOLM-13 [9] = experiment: SiHyT-mediated degrader activity at RNF149/BTK in human MOLM-13 cells assessed as increase in BTK degradation by measuring decrease in BTK expression incubated for 12 hrs by proteomics analysis; assay type: cell-based
MOLM-13 [10] = experiment: (§1) SiHyT-mediated degrader activity at RNF149/BTK in human MOLM-13 cells assessed as induction of BTK degradation incubated for 24 hrs by western blot analysis; assay type: cell-based
[11] = as §1; assay type: cell-based; settings: MOLM-13, 24 h
[12] = Half life of the compound in human liver microsomes at 1 uM in presence of NADPH by LC-MS/MS analysis; assay type: ADME, Microsome
[13] = Intrinsic clearance of the compound in human liver microsomes at 1 uM in presence of NADPH by LC-MS/MS analysis; assay type: ADME, Microsome; settings: read-out: CLH
[14] = Intrinsic clearance of the compound in mouse liver microsomes at 1 uM in presence of NADPH by LC-MS/MS analysis; assay type: ADME, Microsome; settings: read-out: CLH
[15] = Half life of the compound in mouse liver microsomes at 1 uM in presence of NADPH by LC-MS/MS analysis; assay type: ADME, Microsome
Kasumi 1 [16] = experiment: SiHyT-mediated degrader activity at RNF149/PDL1 in human Kasumi 1 cells assessed as induction of PDL1 degradation at 1 uM incubated for 3 to 24 hrs by western blot analysis; assay type: cell-based; settings: time 3-24 hrs
[17] = (§2) SiHyT-mediated degrader activity at RNF149/PDL1 in human Kasumi 1 cells assessed as induction of PDL1 degradation incubated for 24 hrs by western blot analysis; assay type: cell-based; settings: Kasumi 1, 24 h
Kasumi 1 [18] = experiment: as §2; assay type: cell-based
Kasumi 1 [19] = experiment: SiHyT-mediated degrader activity at RNF149/PDL1 in human Kasumi 1 cells assessed as induction of PDL1 degradation at 1 uM pretreated with E1 ligase inhibitor, PYR-41 for 4 hrs followed by incubation with compound for 24 hrs by western blot analysis; assay type: cell-based
Kasumi 1 [20] = experiment: SiHyT-mediated degrader activity at RNF149/PDL1 in human Kasumi 1 cells assessed as increase in PDL1 ubiquitination pretreated with MG132 followed by incubation with compound for 9 hrs by immunoprecipitation based western blot analysis; assay type: cell-based
Kasumi 1 [21] = experiment: SiHyT-mediated degrader activity at RNF149/PDL1 in human Kasumi 1 cells assessed as induction of PDL1 degradation at 1 uM pretreated with proteasome inhibitor, MG-132 for 4 hrs followed by incubation with compound for 24 hrs by western blot analysis; assay type: cell-based
Kasumi 1 [22] = experiment: SiHyT-mediated degrader activity at RNF149/PDL1 in human Kasumi 1 cells assessed as increase in PDL1 degradation by measuring decrease in PDL1 expression incubated for 12 hrs by proteomics analysis; assay type: cell-based
Kasumi 1 [23] = experiment: SiHyT-mediated degrader activity at RNF149/PDL1 in human Kasumi 1 cells assessed as reduction in half life of PDL1 at 1 uM incubated for 6 to 24 hrs in presence of protein synthesis inhibitor, CHX by western blot analysis; assay type: cell-based; settings: time 6-24 hrs
PC-9 [24] = experiment: Induction of cell cycle arrest in human PC-9 cells assessed as increase in cell accumulation at G1 phase at 0.01 to 0.1 uM incubated for 24 hrs by propidium iodide staining based flow cytometry; assay type: functional; settings: dose 0.01-0.1 µM
HCC827 [25] = experiment: Induction of cell cycle arrest in human HCC827 cells assessed as increase in cell accumulation at G1 phase at 0.01 to 0.1 uM incubated for 24 hrs by propidium iodide staining based flow cytometry; assay type: functional; settings: dose 0.01-0.1 µM
PC-9 [26] = experiment: Antiproliferative activity against human PC-9 cells assessed as decrease in cell survival measured after 72 hrs by CCK-8 assay; assay type: functional, cell-based; settings: PC-9, 72 h

Chain of E3 ubiquitin-protein ligase RNF149/Epidermal growth factor receptor (Homo sapiens), P00533+Q8NC42 [UNDEFINED MUTATION] (P00533 whole entry, looked up, stated change not applied): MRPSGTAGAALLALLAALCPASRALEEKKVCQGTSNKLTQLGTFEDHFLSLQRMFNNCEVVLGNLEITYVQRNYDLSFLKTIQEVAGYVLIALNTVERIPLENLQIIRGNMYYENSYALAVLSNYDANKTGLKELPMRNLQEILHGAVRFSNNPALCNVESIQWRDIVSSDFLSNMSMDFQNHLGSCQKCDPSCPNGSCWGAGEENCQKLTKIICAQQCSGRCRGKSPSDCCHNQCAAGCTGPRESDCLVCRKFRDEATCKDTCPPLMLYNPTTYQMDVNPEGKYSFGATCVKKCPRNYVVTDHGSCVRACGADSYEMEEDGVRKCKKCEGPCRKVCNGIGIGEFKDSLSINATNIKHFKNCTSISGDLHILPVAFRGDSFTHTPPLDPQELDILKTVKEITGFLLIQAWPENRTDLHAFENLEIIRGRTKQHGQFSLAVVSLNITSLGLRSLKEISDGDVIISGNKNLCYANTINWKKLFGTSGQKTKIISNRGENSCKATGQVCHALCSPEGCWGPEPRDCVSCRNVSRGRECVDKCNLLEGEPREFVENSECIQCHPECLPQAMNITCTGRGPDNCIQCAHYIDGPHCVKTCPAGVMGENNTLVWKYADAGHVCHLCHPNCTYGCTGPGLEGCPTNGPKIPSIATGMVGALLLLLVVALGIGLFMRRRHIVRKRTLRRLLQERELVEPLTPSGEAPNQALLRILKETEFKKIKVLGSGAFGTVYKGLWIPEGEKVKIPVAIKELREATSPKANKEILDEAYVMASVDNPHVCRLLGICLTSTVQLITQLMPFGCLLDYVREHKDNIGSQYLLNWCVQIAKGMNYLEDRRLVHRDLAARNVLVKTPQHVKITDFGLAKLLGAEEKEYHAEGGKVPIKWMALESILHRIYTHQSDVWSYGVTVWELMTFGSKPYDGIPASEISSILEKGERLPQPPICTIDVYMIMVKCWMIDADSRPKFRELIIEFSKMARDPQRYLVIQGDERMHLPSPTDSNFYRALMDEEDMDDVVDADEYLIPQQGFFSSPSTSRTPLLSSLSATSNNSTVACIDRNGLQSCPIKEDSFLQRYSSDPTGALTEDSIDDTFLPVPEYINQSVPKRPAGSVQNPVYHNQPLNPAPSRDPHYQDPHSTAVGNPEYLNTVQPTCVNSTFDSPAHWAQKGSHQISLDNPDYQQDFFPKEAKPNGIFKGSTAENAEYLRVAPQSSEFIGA
Chain of E3 ubiquitin-protein ligase RNF149/Epidermal growth factor receptor (Homo sapiens), P00533+Q8NC42 [UNDEFINED MUTATION] (Q8NC42 whole entry, looked up, stated change not applied): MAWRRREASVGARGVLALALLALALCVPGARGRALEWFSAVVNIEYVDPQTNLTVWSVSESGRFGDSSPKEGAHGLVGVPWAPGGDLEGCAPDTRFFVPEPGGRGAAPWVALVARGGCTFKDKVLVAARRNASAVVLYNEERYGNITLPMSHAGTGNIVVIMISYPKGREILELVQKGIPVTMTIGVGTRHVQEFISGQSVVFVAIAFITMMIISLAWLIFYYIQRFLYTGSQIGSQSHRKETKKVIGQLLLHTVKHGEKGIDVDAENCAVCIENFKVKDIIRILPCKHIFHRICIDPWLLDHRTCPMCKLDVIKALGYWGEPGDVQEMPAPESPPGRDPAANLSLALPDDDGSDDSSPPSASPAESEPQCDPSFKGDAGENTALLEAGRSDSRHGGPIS

COc1cc2ncnc(Nc3ccc(F)c(Cl)c3)c2cc1OCCn1cc(CCCCO[Si](c2ccccc2)(c2ccccc2)C(C)(C)C)nn1
Activity [1]: 28% | IC50 (HCC827 [2]): 110 nM | Activity [3]: 58.4%

COc1cc2ncnc(Nc3ccc(F)c(Cl)c3)c2cc1OCCn1cc(CCO[Si](C)(C)C2CCCCC2)nn1
Activity [1]: 12.7% | IC50 (HCC827 [2]): 450 nM | Activity [3]: 47%

COc1cc2ncnc(Nc3ccc(F)c(Cl)c3)c2cc1OCCCN1CCN(CCO[Si](c2ccccc2)(c2ccccc2)C(C)(C)C)CC1
Activity [1]: 0% | IC50 (HCC827 [2]): > 10000 nM | Activity [3]: 16.8%

COc1cc2ncnc(Nc3ccc(F)c(Cl)c3)c2cc1OCCn1cc(CCCCO[Si](C)(C)C2CCCCC2)nn1
Activity [1]: 46.1% | IC50 (HCC827 [2]): 700 nM | Activity [3]: 53.2%

COc1cc2ncnc(Nc3ccc(F)c(Cl)c3)c2cc1OCCCN1CCN(CCn2cc(CCCCO[Si](C)(C)C3CCCCC3)nn2)CC1
Activity [1]: 0% | IC50 (HCC827 [2]): > 10000 nM | Activity [3]: 18.4%

COc1cc2ncnc(Nc3ccc(F)c(Cl)c3)c2cc1OCCCN1CCN(CCCO[Si](c2ccccc2)(c2ccccc2)C(C)(C)C)CC1
Activity [1]: 0% | IC50 (HCC827 [2]): > 10000 nM | Activity [3]: 0%

CC[Si](CC)(CC)OCCCc1cn(CCOc2cc3c(Nc4ccc(F)c(Cl)c4)ncnc3cc2OC)nn1
Activity [1]: 38.2% | IC50 (HCC827 [2]): 330 nM | Activity [3]: 79.1%

CC(C)(C)[Si](OCCn1cc(CCC(=O)N2CCC[C@@H](n3nc(-c4ccc(Oc5ccccc5)cc4)c4c(N)ncnc43)C2)nn1)(c1ccccc1)c1ccccc1
Activity (MOLM-13 [4]): Time-dependent-effect | Activity (MOLM-13 [5]): Active | Activity (MOLM-13 [6]): inactive | Activity (MOLM-13 [7]): inactive | Activity (MOLM-13 [8]): Active | Activity (MOLM-13 [9]): Active | Activity (MOLM-13 [10]): Active | DC50 [11]: 2780 nM

COc1cc2ncnc(Nc3ccc(F)c(Cl)c3)c2cc1OCCCN1CCN(CCn2cc(CCCO[Si](c3ccccc3)(c3ccccc3)C(C)(C)C)nn2)CC1
Activity [1]: 0% | IC50 (HCC827 [2]): 1580 nM | Activity [3]: 10.8%

COc1cc2ncnc(Nc3ccc(F)c(Cl)c3)c2cc1OCCCN1CCN(CCn2cc(CCCO[Si](C)(C)C3CCCCC3)nn2)CC1
Activity [1]: 0% | IC50 (HCC827 [2]): > 10000 nM | Activity [3]: 13.7%

COc1cc2ncnc(Nc3ccc(F)c(Cl)c3)c2cc1OCCn1cc(CCCO[Si](C)(C)C2CCCCC2)nn1
Activity [1]: 52.3% | IC50 (HCC827 [2]): 150 nM | Activity [3]: 55.3%

COc1cc2ncnc(Nc3ccc(F)c(Cl)c3)c2cc1OCCn1cc(CCCNC(=O)CC23CC4CC(CC(C4)C2)C3)nn1
half-life at 1 µM [12]: 1.81 min | CLint scaled at 1 µM [13]: 690 mL/min/kg | CLint scaled at 1 µM [14]: 5230 mL/min/kg | half-life at 1 µM [15]: 1.05 min

COc1cc(OCc2cccc(-c3ccccc3)c2C)cc(OC)c1CNCc1cn(CCO[Si](c2ccccc2)(c2ccccc2)C(C)(C)C)nn1
Activity (Kasumi 1 [16]): Time-dependent-effect | DC50 [17]: 510 nM | Activity (Kasumi 1 [18]): Active | Activity (Kasumi 1 [19]): inactive | Activity (Kasumi 1 [20]): Active | Activity (Kasumi 1 [21]): inactive | Activity (Kasumi 1 [22]): Active | Activity (Kasumi 1 [23]): Active

COc1cc2ncnc(Nc3ccc(F)c(Cl)c3)c2cc1OCCCN1CCN(CCn2cc(CCO[Si](c3ccccc3)(c3ccccc3)C(C)(C)C)nn2)CC1
Activity [1]: 0% | IC50 (HCC827 [2]): 990 nM | Activity [3]: 58%

O=C(O)Cc1ccccc1Nc1c(Cl)cccc1Cl [DICLOFENAC]
half-life at 1 µM [12]: 6.96 min | CLint scaled at 1 µM [13]: 179 mL/min/kg | CLint scaled at 1 µM [14]: 109 mL/min/kg | half-life at 1 µM [15]: 50.2 min

COc1cc2ncnc(Nc3ccc(F)c(Cl)c3)c2cc1OCCn1cc(CCCO[Si](C(C)C)(C(C)C)C(C)C)nn1
Activity [1]: 4.2% | IC50 (HCC827 [2]): 7460 nM | Activity [3]: 18.2%

COc1cc2ncnc(Nc3ccc(F)c(Cl)c3)c2cc1OCCCN1CCOCC1 [GEFITINIB]
Activity (PC-9 [24]): Dose-dependent-effect | Activity (HCC827 [25]): Dose-dependent-effect | IC50 (PC-9 [26]): 13 nM

COc1cc2ncnc(Nc3ccc(F)c(Cl)c3)c2cc1OCCCN1CCN(CCn2cc(CCCCO[Si](c3ccccc3)(c3ccccc3)C(C)(C)C)nn2)CC1
Activity [1]: 0% | IC50 (HCC827 [2]): 3040 nM | Activity [3]: 0%

COc1cc2ncnc(Nc3ccc(F)c(Cl)c3)c2cc1OCCn1cc(CCCC(=O)NCC2CC3C=CC2C3)nn1 (configuration not stated)
half-life at 1 µM [12]: 9.48 min | CLint scaled at 1 µM [13]: 132 mL/min/kg | CLint scaled at 1 µM [14]: 614 mL/min/kg | half-life at 1 µM [15]: 8.94 min

COc1cc2ncnc(Nc3ccc(F)c(Cl)c3)c2cc1OCCn1cc(CCCNC(=O)CO[C@@H]2C[C@H](C)CC[C@H]2C(C)C)nn1
half-life at 1 µM [12]: 4.22 min | CLint scaled at 1 µM [13]: 295 mL/min/kg | CLint scaled at 1 µM [14]: 741 mL/min/kg | half-life at 1 µM [15]: 7.4 min

COc1cc2ncnc(Nc3ccc(F)c(Cl)c3)c2cc1OCCCCCCCO[Si](c1ccccc1)(c1ccccc1)C(C)(C)C
Activity [1]: 0% | IC50 (HCC827 [2]): > 10000 nM | Activity [3]: 0%

COc1cc2ncnc(Nc3ccc(F)c(Cl)c3)c2cc1OCCCCCCCCO[Si](c1ccccc1)(c1ccccc1)C(C)(C)C
Activity [1]: 0% | IC50 (HCC827 [2]): > 10000 nM | Activity [3]: 0%

COc1cc2ncnc(Nc3ccc(F)c(Cl)c3)c2cc1OCCn1cc(CCO[Si](c2ccccc2)(c2ccccc2)C(C)(C)C)nn1
Activity [1]: 46.4% | IC50 (HCC827 [2]): 140 nM | Activity [3]: 72.1%

COc1cc2ncnc(Nc3ccc(F)c(Cl)c3)c2cc1OCCOCCOCCO[Si](c1ccccc1)(c1ccccc1)C(C)(C)C
Activity [1]: 0% | IC50 (HCC827 [2]): > 10000 nM | Activity [3]: 20.1%

COc1cc2ncnc(Nc3ccc(F)c(Cl)c3)c2cc1OCCOCCO[Si](c1ccccc1)(c1ccccc1)C(C)(C)C
Activity [1]: 0% | IC50 (HCC827 [2]): > 10000 nM | Activity [3]: 0%

COc1cc2ncnc(Nc3ccc(F)c(Cl)c3)c2cc1OCCn1cc(CCCO[Si](C)(C)C(C)(C)C)nn1
Activity [1]: 19.7% | IC50 (HCC827 [2]): 5620 nM | Activity [3]: 22.4%
